Our source for the TGI and GI50 values is PubChem BioAssay (NCI).

“And” between values parts separate entries of the source, which are not always exact repeats. Equal values may be shown once.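 Five compound concentrations were applied to cells in 96-well plates for 48 hours; endpoints were derived by simple linear interpolation of the resulting dose-response curve. At the GI50, growth is halved. TGI: concentration producing complete growth inhibition.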 *1 amine or outer side, *2 acyl side, *3 side chain or, on linkers, in order; H or OH if unused. Where a SMILES comes first, the peptide text is derived from it. Bridges are numbered along the chain shown (N, C = ends). [ ]: non-standard residue; d: D form. The star is where a group is joined. Phe(3,5-F2) = N[C@@H](Cc1cc(F)cc(F)c1)C(=O)O; Pro(4R-Me) = C[C@H]1CN[C@H](C(=O)O)C1; aThr = C[C@H](O)[C@H](N)C(=O)O; Pip = O=C(O)[C@@H]1CCCCN1; X10 = Fc1cc(C2CC2)ccc1N*; CO = O=C([*:1])[*:2]

Test systems include U251 CNS; HCT-15 colon; SW-620 colon; ACHN renal; KM12 colon; SNB-75 CNS; SF-539 CNS; IGROV1 ovarian; SF-295 CNS; UACC-257 melanoma.
What all share (experiment): inhibition of tumour cell growth, NCI panel, 48 h

`CCN(CC)CCSc1c2ccccc2nc2cc(NCC(=O)Nc3ccccc3-c3ccccc3NC(=O)CNc3ccc4c(SCCN(CC)CC)c5ccccc5nc4c3)ccc12`: the TGI with U251 CNS, in the assay with HCT-15 colon, with SW-620 colon, with ACHN renal, in the assay on KM12 colon and in the assay on SNB-75 CNS was more than 100 µM in each case. In addition, the TGI with SF-539 CNS, with IGROV1 ovarian, in the assay with SF-295 CNS and with UACC-257 melanoma was more than 100 µM throughout.

Regarding `O=C(Nc1ccccc1)c1c(O)[nH]c(=S)[nH]c1=O`, the GI50 with U251 CNS was 66.5 µM; in the assay with HCT-15 colon, 84.3 µM; in the assay with SW-620 colon it was 74.4 µM; with KM12 colon it was 69900 nM; in the assay on SF-539 CNS, 102 µM; with IGROV1 ovarian, 45.9 µM. Besides, the GI50 in the assay on UACC-257 melanoma is 83.1 µM. Further, the TGI was 109 µM and > 250 µM in the assay with U251 CNS; 72.2 µM and > 250 µM with HCT-15 colon; 97.7 µM and > 250 µM with SW-620 colon; 78.7 µM in the assay on ACHN renal; 111 µM and > 250 µM in the assay with KM12 colon; 91.9 µM in the assay on SNB-75 CNS. Besides, the TGI in the assay with SF-539 CNS is 87.1 µM and > 250 µM; in the assay on IGROV1 ovarian, 97.1 µM and > 250 µM; in the assay on SF-295 CNS it was 108 µM; with UACC-257 melanoma, 112 µM and > 250 µM.

Consider `Cc1cc(-c2nc(C(=O)Nc3cc4oc(N5CCOCC5)nc4nc3N3CC[C@@H](O)C3)co2)ccn1`, for which the GI50 in the assay with U251 CNS is 74.3 µM; in the assay on HCT-15 colon, 25.7 µM; with SW-620 colon, 28.4 µM; with ACHN renal, 17.9 µM; in the assay with KM12 colon, 3460 nM; in the assay on SNB-75 CNS, 9.41 µM. Besides, the GI50 was 24 µM with SF-539 CNS, 12.7 µM in the assay on IGROV1 ovarian, 87500 nM in the assay with SF-295 CNS and 88.8 µM with UACC-257 melanoma. Moreover, the TGI in the assay with U251 CNS was more than 100 µM; with HCT-15 colon, more than 100 µM; in the assay on SW-620 colon it was more than 100 µM; with ACHN renal, 93.7 µM; in the assay on KM12 colon, more than 100 µM; with SNB-75 CNS, 69.2 µM. Besides, the TGI in the assay with SF-539 CNS was more than 100 µM; in the assay on IGROV1 ovarian, 72.7 µM; with SF-295 CNS it was more than 100 µM; with UACC-257 melanoma, more than 100 µM.

On to `OCCN(CCO)c1ncnc2c1ncn2Cc1ccc(CCl)cc1`, for which the GI50 was 15.7 µM in the assay on U251 CNS; 18.4 µM with HCT-15 colon; 10.8 µM in the assay on SW-620 colon; 14.9 µM in the assay on ACHN renal; 14300 nM in the assay on KM12 colon; 20.3 µM in the assay with SNB-75 CNS. The GI50 in the assay on SF-539 CNS is 10.3 µM; with IGROV1 ovarian, 19.7 µM; in the assay on SF-295 CNS it was 17000 nM; with UACC-257 melanoma it was 13.8 µM. Also, the TGI in the assay with U251 CNS was determined as 29.8 µM; in the assay with HCT-15 colon, 39.9 µM; in the assay on SW-620 colon, 27.3 µM; in the assay with ACHN renal, 28.5 µM; with KM12 colon it was 29.2 µM; with SNB-75 CNS, 40.9 µM. Further, the TGI was found to be 24.2 µM in the assay on SF-539 CNS, 40.3 µM in the assay with IGROV1 ovarian, 33.6 µM with SF-295 CNS and 28.9 µM in the assay on UACC-257 melanoma.

Take `Cc1ccc(NC(=O)Nc2ccc(-c3cccnc3)cc2N2CCC(CO)CC2)cc1`: the GI50 was 2.02 µM with U251 CNS; 2.77 µM in the assay with HCT-15 colon; 2.52 µM with SW-620 colon; 6.68 µM with ACHN renal; 1250 nM in the assay with KM12 colon; 1.26 µM in the assay on SNB-75 CNS. Also, the GI50 is 1.68 µM in the assay on SF-539 CNS, 8.44 µM with IGROV1 ovarian, 2530 nM in the assay with SF-295 CNS and 2.14 µM in the assay with UACC-257 melanoma. Also, the TGI with U251 CNS was 6.81 µM; in the assay on HCT-15 colon, more than 100 µM; with SW-620 colon, more than 100 µM; with ACHN renal, more than 100 µM; in the assay on KM12 colon it was more than 100 µM; in the assay on SNB-75 CNS, 5.03 µM. Besides, the TGI in the assay with SF-539 CNS was 4.67 µM; in the assay on IGROV1 ovarian, more than 100 µM; in the assay on SF-295 CNS, more than 100 µM; in the assay with UACC-257 melanoma, 9.61 µM.

On to `O=[N+]([O-])c1cccc(-c2csc(NNC3=NC/C(=C/c4ccc5c(c4)OCO5)S3)n2)c1`, for which the TGI in the assay with U251 CNS was more than 100 µM; in the assay on HCT-15 colon, more than 100 µM; in the assay on SW-620 colon it was more than 100 µM; in the assay on ACHN renal it was more than 100 µM; with KM12 colon, 29.2 µM; with SNB-75 CNS it was 46.5 µM. Besides, the TGI in the assay on SF-539 CNS is more than 100 µM; in the assay with IGROV1 ovarian, 47.4 µM; in the assay with SF-295 CNS, more than 100 µM; in the assay with UACC-257 melanoma, more than 100 µM.

On to `C[C@@H]1C[C@H]2C(=O)O[C@@H](C)[C@H](NC(=O)[C@H](Cc3cc(F)cc(F)c3)NC(=O)Nc3ccc(C4CC4)cc3F)C(=O)N3CCC[C@H]3C(=O)N3CCCC[C@H]3C(=O)N[C@@H](C)C(=O)N2C1` ({X10-CO}-[Phe(3,5-F2)][aThr]P[Pip]A[Pro(4R-Me)]; ester 2-C), for which the GI50 in the assay with U251 CNS is 0.0479 µM; with HCT-15 colon, 0.0796 µM; in the assay with SW-620 colon, 0.0534 µM; in the assay with ACHN renal, 0.0984 µM; with KM12 colon it was 90.9 nM; with SNB-75 CNS, 0.0485 µM. Besides, the GI50 was 0.0752 µM in the assay on SF-539 CNS, 0.149 µM in the assay on IGROV1 ovarian, 43.8 nM in the assay on SF-295 CNS and 0.0413 µM with UACC-257 melanoma. In addition, the TGI was more than 46 µM with U251 CNS; 5.28 µM in the assay with HCT-15 colon; more than 100 µM in the assay with SW-620 colon; 8.12 µM with ACHN renal; 10.3 µM in the assay on KM12 colon; 49.9 µM with SNB-75 CNS. The TGI in the assay on SF-539 CNS is 3.56 µM; in the assay on IGROV1 ovarian, 18.5 µM; with SF-295 CNS it was 1.57 µM; in the assay with UACC-257 melanoma, 10.7 µM.

Take `COc1cc2c(c(OC)c1OC)-c1ccc(NNC(N)=S)c(=O)cc1[C@@H](NC(C)=O)CC2`: the GI50 in the assay on U251 CNS is 0.415 µM; in the assay with HCT-15 colon it was 4.23 µM; in the assay on SW-620 colon it was 0.365 µM; with ACHN renal, 7.19 µM; with KM12 colon, 301 nM; in the assay with SF-539 CNS it was 0.338 µM. Further, the GI50 in the assay with IGROV1 ovarian was 1.18 µM; in the assay on SF-295 CNS it was 630 nM. In addition, the TGI in the assay on U251 CNS was more than 100 µM; with HCT-15 colon it was more than 100 µM; in the assay on SW-620 colon, more than 100 µM; in the assay on ACHN renal it was more than 100 µM; in the assay with KM12 colon, 1.92 µM; with SNB-75 CNS, more than 100 µM. In addition, the TGI in the assay on SF-539 CNS was 4.31 µM; with IGROV1 ovarian it was more than 100 µM; in the assay with SF-295 CNS it was more than 100 µM; with UACC-257 melanoma, more than 100 µM.
